The target of test [1] is T1, Neuropeptide Y receptor type 1 (Homo sapiens, UniProt P25929).
T1 sequence (P25929 whole entry): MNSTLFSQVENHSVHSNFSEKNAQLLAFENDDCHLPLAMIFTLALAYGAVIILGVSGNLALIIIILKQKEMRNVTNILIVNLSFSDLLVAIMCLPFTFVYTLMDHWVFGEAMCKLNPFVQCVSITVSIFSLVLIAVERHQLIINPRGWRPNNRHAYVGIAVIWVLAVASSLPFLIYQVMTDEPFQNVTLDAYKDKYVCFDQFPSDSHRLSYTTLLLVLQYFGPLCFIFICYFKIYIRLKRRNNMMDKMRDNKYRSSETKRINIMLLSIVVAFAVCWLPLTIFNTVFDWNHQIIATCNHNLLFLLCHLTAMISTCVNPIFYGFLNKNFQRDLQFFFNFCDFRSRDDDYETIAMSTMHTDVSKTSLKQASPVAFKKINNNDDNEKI
Kind of test: Displacement of NG-([2,3-3H]propionyl)-BIBP-3226 from NPY Y1 receptor in human SK-N-MC cells. In kind it is cell-based.

For test [2], the target named is T2, Neuropeptide Y receptor type 1 (Homo sapiens) (UniProt P25929).
T2 sequence (whole entry): T1 sequence (P25929 whole entry)
Put plainly: Antagonist activity at NPY Y1 receptor in HEL cells assessed as inhibition of NPY-induced increase in intracellular calcium mobilization by Fura-2 assay. In kind it is functional, cell-based.

Where only a bound is given, the exact number is not on record here.

Usually Ki stands for the dissociation constant of the complex between target and ligand, obtained from inhibition or displacement. Low readings indicate higher affinity, high ones lower affinity. In general, Kb refers to the affinity of an antagonist, worked out from how it opposes an agonist.

Turning to `N/C(=N/C(=O)c1ccc(Cn2cc(CN(Cc3cn(Cc4ccc(C(=O)/N=C(/N)NCCC[C@@H](NC(=O)C(c5ccccc5)c5ccccc5)C(=O)NCc5ccc(O)cc5)cc4)nn3)Cc3cn(Cc4ccc(C(=O)/N=C(/N)NCCC[C@@H](NC(=O)C(c5ccccc5)c5ccccc5)C(=O)NCc5ccc(O)cc5)cc4)nn3)nn2)cc1)NCCC[C@@H](NC(=O)C(c1ccccc1)c1ccccc1)C(=O)NCc1ccc(O)cc1`, the Ki in test [1] is more than 50000 nM.

As to `N/C(=N/C(=O)CCCn1cc(-c2ccccc2)nn1)NCCC[C@@H](NC(=O)C(c1ccccc1)c1ccccc1)C(=O)NCc1ccc(O)cc1`, in test [2], the antagonist equilibrium constant (Kb) amounted to 0.9 nM. The compound also gave a Ki in test [1] of 49 nM.

Consider `N/C(=N/C(=O)CCCn1cc(COCCOCCOCCOCCOCc2cn(CCCC(=O)/N=C(\N)NCCC[C@@H](NC(=O)C(c3ccccc3)c3ccccc3)C(=O)NCc3ccc(O)cc3)nn2)nn1)NCCC[C@@H](NC(=O)C(c1ccccc1)c1ccccc1)C(=O)NCc1ccc(O)cc1`, for which, in test [2], the Kb is 1.8 nM. In test [1], the Ki worked out at 58 nM.

In the case of `N/C(=N/C(=O)COCCOCCOCC(=O)/N=C(\N)NCCC[C@@H](NC(=O)C(c1ccccc1)c1ccccc1)C(=O)NCc1ccc(O)cc1)NCCC[C@@H](NC(=O)C(c1ccccc1)c1ccccc1)C(=O)NCc1ccc(O)cc1`, the antagonist dissociation constant (Kb) in test [2] amounted to 7 nM. In addition, affinity in test [1] was put at a Ki of 6.1 nM.

Consider `N/C(=N/C(=O)CCCn1cc(-c2ccc(-c3cn(CCCC(=O)/N=C(\N)NCCC[C@@H](NC(=O)C(c4ccccc4)c4ccccc4)C(=O)NCc4ccc(O)cc4)nn3)cc2)nn1)NCCC[C@@H](NC(=O)C(c1ccccc1)c1ccccc1)C(=O)NCc1ccc(O)cc1`, for which the antagonist equilibrium constant (Kb) in test [2] amounted to 0.6 nM. The inhibition constant (Ki) in test [1] came to 43 nM.

Values taken from ChEMBL document CHEMBL1142532, “Modular synthesis of non-peptidic bivalent NPY Y1 receptor antagonists” (Bioorg Med Chem, 2008).
